Test results published in ChEMBL document CHEMBL5550173, “Design, synthesis and biological evaluation of indoline-maleimide conjugates as potential antitumor agents for the treatment of colorectal cancer” (Bioorg Med Chem, 2024).
pIC50: −log10 of the molar value.

Tests used:
[1] = tested on: HCT-116; test: Cytotoxicity against human HCT-116 cells at 5 uM incubated for 72 hrs by MTS assay; format: functional
[2] = tested on: RKO; test: Cytotoxicity against human RKO cells at 5 uM incubated for 72 hrs by MTS assay; format: functional
[3] = tested on: HT-29; test: Cytotoxicity against human HT-29 cells at 5 uM incubated for 72 hrs by MTS assay; format: functional
[4] = tested on: RKO; test: Cytotoxicity against human RKO cells incubated for 72 hrs by MTS assay; format: functional, cell-based
[5] = Cytotoxicity against human NCM460 cells incubated for 72 hrs by MTS assay; format: toxicity, cell-based
[6] = tested on: HCT-116; test: Cytotoxicity against human HCT-116 cells incubated for 72 hrs by MTS assay; format: functional, cell-based; settings: HCT-116, 72 h
[7] = tested on: HT-29; test: Cytotoxicity against human HT-29 cells incubated for 72 hrs by MTS assay; format: functional, cell-based; settings: HT-29, 72 h

Compound | Activity [1] [%] | Activity [2] [%] | Activity [3] [%] | further results
CN1C(=O)C=C(c2cccc3c2N(C(=O)c2cc4ccccc4o2)CC3)C1=O | 11.36 | 46.33 | – | –
CN(C)C(=O)N1CCc2cccc(C3=CC(=O)N(C)C3=O)c21 | – | 4.75 | 5.08 | –
CN1C(=O)C=C(c2cccc3c2N(C(=O)C2CCCCC2)CC3)C1=O | – | 65.05 | – | –
CN1C(=O)C=C(c2cccc3c2N(C(=O)N2CCOCC2)CC3)C1=O | – | 22.03 | 6.82 | –
CN1C(=O)C=C(c2cc(Cl)cc3c2N(C(=O)C(C)(C)C)CC3)C1=O | – | 15.17 | – | –
CN1C(=O)C=C(c2cc(F)cc3c2N(C(=O)C(C)(C)C)CC3)C1=O | 6.51 | 78.58 | 18.8 | –
CN1C(=O)C=CC1=O | 51.17 | 33.16 | 7.09 | –
CC(C)N1C(=O)C=C(c2cccc3c2N(C(=O)C(C)(C)C)CC3)C1=O | – | 19.15 | – | –
COC(=O)CCN1C(=O)C=C(c2cccc3c2N(C(=O)C(C)(C)C)CC3)C1=O | 21.18 | 59.55 | – | –
CC(=O)c1ccc(N2C(=O)C=C(c3cccc4c3N(C(=O)C(C)(C)C)CC4)C2=O)cc1 | – | – | 4.69 | –
CN1C(=O)C=C(c2cc(C#N)cc3c2N(C(=O)C(C)(C)C)CC3)C1=O | – | 50.21 | 4.68 | –
O=c1[nH]cc(F)c(=O)[nH]1 [FLUOROURACIL] | 37.53 | 52.32 | 29.52 | pIC50 [4]: 5.40; IC50 at 72 h [5]: 7.95 µM; pIC50 [6]: 5.10
CC(C)(C)C(=O)N1CCc2cccc(C3=CC(=O)NC3=O)c21 | – | 10.96 | – | –
CC(=O)N1CCc2cccc(C3=CC(=O)N(C)C3=O)c21 | – | 48.13 | 6.8 | –
COc1ccc2c(c1C1=CC(=O)N(C)C1=O)N(C(=O)C(C)(C)C)CC2 | – | 21.09 | – | –
C=C(C)C(=O)n1ccc2cccc(C3=CC(=O)N(C)C3=O)c21 | 32.89 | 58.25 | 10.28 | –
CN1C(=O)C=C(c2cccc3c2N(C(=O)C(C)(C)C)CC3)C1=O | 76.85 | 79.24 | 49.95 | pIC50 [4]: 5.64; pIC50 [6]: 5.40; pIC50 [7]: 5.26
CN1C(=O)C=C(c2cccc3c2N(C(=O)C2CC2)CC3)C1=O | 76.22 | 88.42 | 43.87 | pIC50 [4]: 5.67; pIC50 [6]: 5.46; pIC50 [7]: 5.29

Compound | Activity [1] [%] | Activity [2] [%] | Activity [3] [%] | further results
CC(C)(C)C(=O)N1CCc2cccc(C3=CC(=O)N(Cc4ccccc4)C3=O)c21 | – | 39.93 | – | –
C=C(C)C(=O)N1CCc2ccccc21 | – | – | 4.7 | –
Cc1cc2c(c(C3=CC(=O)N(C)C3=O)c1)N(C(=O)C(C)(C)C)CC2 | – | 17.49 | – | –
CC1Cc2cccc(C3=CC(=O)N(C)C3=O)c2N1C(=O)C(C)(C)C (stereo not drawn) | – | 61.74 | 2.07 | –
CN1C(=O)C=C(c2cccc3c2N(C(=O)N2CCCCC2)CC3)C1=O | – | 17.85 | – | –
C=CC(=O)N1CCc2cccc(C3=CC(=O)N(C)C3=O)c21 | 23.11 | 78.18 | 2.14 | –
CN1C(=O)C=C(c2c(F)ccc3c2N(C(=O)C(C)(C)C)CC3)C1=O | – | 32.98 | – | –
CC1CN(C(=O)C(C)(C)C)c2c(C3=CC(=O)N(C)C3=O)cccc21 (stereo not drawn) | – | 56.28 | 6.02 | –
CN1C(=O)C=C(c2ccc(Cl)c3c2N(C(=O)C(C)(C)C)CC3)C1=O | – | 57.87 | – | –
CN1C(=O)C=C(c2cccc3c2N(C(=O)c2ccccc2)CC3)C1=O | – | 26.15 | 4.95 | –
CCc1ccc(N2C(=O)C=C(c3cccc4c3N(C(=O)C(C)(C)C)CC4)C2=O)cc1 | 10.96 | 7.21 | 7.09 | –
COc1ccc(C2=CC(=O)N(C)C2=O)c2c1CCN2C(=O)C(C)(C)C | – | 16.41 | 4.04 | –
CC(C)(C)C(=O)N1CCc2cccc(C3=CC(=O)N(C4CCCCC4)C3=O)c21 | – | 38.47 | – | –
CCC(=O)N1CCc2cccc(C3=CC(=O)N(C)C3=O)c21 | 4.19 | 80.31 | – | –
CCN1C(=O)C=C(c2cccc3c2N(C(=O)C(C)(C)C)CC3)C1=O | 59.58 | 80.91 | 16.99 | –
CN1C(=O)C=C(c2cc(I)cc3c2N(C(=O)C(C)(C)C)CC3)C1=O | – | 57.09 | – | –
CC(C)(C)C(=O)N1CCc2cccc(C3=CC(=O)N(c4ccccc4)C3=O)c21 | – | 10.63 | – | –
